# Results reported in ChEMBL document CHEMBL3507680, “University of Dundee, Gates Library screen for HepG2 cell viability”.
# Experiment: Human HepG2 cell viability assay in 384 well format
# Type: toxicity, cell-based
# Parameters: dose 125 nL, time 70.5 hour; concentration not given beside the values
# Conditions: HepG2 cells, read-out: Inhibition
row,SMILES,cytotoxicity at 70.5 h [%]
1,CCO[C@H]1CO[C@@]2(CCCN(Cc3scnc3C)C2)C1,14.7
2,COc1ccccc1N1CCN(Cc2nccc(OC)c2OC)CC1=O,7.74
3,CC[C@@]1(O)CCN(C(=O)c2ccc(-n3cnnc3)cc2)C[C@H]1O,20.9
4,O=C(c1cccc(Cl)c1)N1CCCn2c(CN3CCCCC3)nnc2C1,-1.86
5,COc1cccn(CC(=O)N2CCC3(CCNCC3)C2)c1=O,-13.1
6,CN(C)Cc1nnc(C2CCCN(c3nc(C(N)=O)cs3)C2)n1C (stereo unspecified),-7.8
7,Cc1ncoc1C(=O)N1C[C@H]2CCC[C@@]2(COCC2CCOCC2)C1,-12.7
8,COc1ccc(F)c(CN2CCCC(O)(CNC3CCCCC3)C2=O)c1 (stereo unspecified),-2.81
9,COc1ccc(CN2CCCC3(CC2)CNC(=O)O3)cc1OC (stereo unspecified),12.1
10,O=C(Nc1cccnc1)NC1CCN(c2ccccc2OC(F)F)C1 (stereo unspecified),-3.6
11,Cc1nn(Cc2ccc(C(=O)NC3CCS(=O)(=O)C3)cc2)c(C)c1Br (stereo unspecified),3.3
12,CN(C)CCn1c(=O)oc2ccc(NC(=O)C3CCCO3)cc21 (stereo unspecified),1.22
13,CNC(=O)C1CCCCN1C(=O)c1csc(-c2ccc(C)cc2)n1 (stereo unspecified),-9.54
14,Cc1nc(-c2c(-c3ccccc3)ncn2[C@H]2C[C@@H](C(=O)O)N(C)C2)co1,-11.1
15,N#Cc1cccc(NC2CC(=O)N(Cc3ccccc3Cl)C2)n1 (stereo unspecified),18.9
16,CC(C)(C)c1coc([C@@H]2COCCN2Cc2ncc[nH]2)n1,-0.512
17,COCc1nc(C(=O)NS(=O)(=O)c2ccc(C)cc2C)cs1,-11.1
18,Cn1cccc1CN(C(=O)CC(CC(=O)O)c1cccs1)C1CC1 (stereo unspecified),-9.4
19,CCC(=O)N1CCC(Cc2ccccc2-c2ccccc2)(C(N)=O)C1 (stereo unspecified),-20.3
20,O=C(c1ccc(-n2cccn2)nc1)N1CCCN(c2cccnn2)CC1,-14.8
21,Cn1cc(C2SCC(=O)Nc3c2cnn3C(C)(C)C)cn1 (stereo unspecified),0.666
22,NC(=O)NCC(=O)N1C[C@H]2CC[C@@H]1CN(C1Cc3ccccc3C1)C2,-10.1
23,O=c1ccc(-c2ccccc2F)nn1CCN1CCCS1(=O)=O,-2.96

row,SMILES,cytotoxicity at 70.5 h [%]
1,CCOc1c(Cl)cc(Cl)cc1CNCCCn1ccnc1,-10.4
2,CS(=O)(=O)NCCNC(=O)c1ccc(OCc2ccccc2)nc1,-9.1
3,c1csc(CN2CCO[C@@H]3CN(C4CCOCC4)C[C@@H]3C2)c1,-10
4,COc1cc2cc(C(=O)NC(C)C(=O)O)n(C)c2c(OC)c1OC (stereo unspecified),-7.07
5,O=C(CN1CCNC1=O)N1CCc2nnc(-c3ccccc3)n2CC1,-1.95
6,CC(O)CN1CCN(Cc2nnc(C3CC3)o2)CC1 (stereo unspecified),-4
7,CN(C)[C@H]1CN(C(=O)CCc2cccc(F)c2)C[C@@H]1C1CC1,-5.67
8,CN(Cc1cccnc1)CC1CN(C(=O)C2CC2)Cc2nccn2C1 (stereo unspecified),-7.48
9,CC(=O)NC(Cc1c[nH]c2cc(F)ccc12)C(=O)Nc1cnn(C)c1 (stereo unspecified),1.79
10,Cn1cncc1CN1CCC(O)(Cn2nc(-c3cccs3)oc2=O)CC1,-2.36
11,CCc1cc(N2CCC(N[C@@H]3CS(=O)(=O)C[C@H]3O)CC2)nc(N(C)C)n1,0.303
12,O=c1cc2c(nn1CN1CCOCC1)CCC2,-3.75
13,CC(CNC(=O)c1c[nH]nn1)Oc1cccc(Br)c1 (stereo unspecified),-11.4
14,Cc1nn(C)c2ncnc(N3CCC(O)(CN4CCCC4)CC3)c12,-6.34
15,CCn1ccnc1CN1CCNCC1C (stereo unspecified),-5.16
16,CC(=O)Cn1cc(C#N)c(=O)c2cc(Br)ccc21,-13.6
17,O=C(NCc1ccnc(OCC(F)(F)F)c1)NCC1CCCO1 (stereo unspecified),0.67
18,Cc1nc(-c2cnn(C)c2)nc2c1CN(C(=O)c1cccn1C)CC2,1.91
19,CC(C)CN1CCN(C)C2(CCN(Cc3ccsc3)CC2)C1=O,0.403
20,C=C(C)CN1CCN(Cc2cnc(-c3ccccc3C)nc2)CC1,23.9
21,O=C(O)CCCC(=O)N1CCC(c2noc3cc(F)ccc23)CC1,-13.8
22,Cc1cc(C)n(C2CCCN(C(=O)c3csc(C4CC4)n3)C2)n1 (stereo unspecified),-11
23,O=C(O)c1csc(S(=O)(=O)N2CCN(Cc3ccc(Cl)cc3)CC2)c1,-12.5

row,SMILES,cytotoxicity at 70.5 h [%]
1,Cc1cccc(CN2CCN(C(=O)c3cc(Cl)c[nH]c3=O)CC2)c1,-4.23
2,Cc1nc(CN(C)C2CCN(Cc3cccc(F)c3)C2)no1 (stereo unspecified),1.26
3,CCSCc1ccc(C(=O)N2CCCN(CC(N)=O)CC2)cc1,-5.22
4,NC(=O)c1cc(C2CCCN(C(=O)CCc3ccncc3)C2)n[nH]1 (stereo unspecified),-4.91
5,Cn1nccc1C(=O)N1CCN(C(=O)C2CC2)[C@@H]2CS(=O)(=O)C[C@@H]21,-5.45
6,c1cncc(NCCCNC2CCSC2)c1 (stereo unspecified),-3.16
7,c1ccc2[nH]c(C3CCN(Cc4nc(C5CC5)no4)CC3)cc2c1,-1.32
8,O=C(NCCc1coc(-c2ccccc2)n1)NC1CC1,20.2
9,CCN(CC(=O)N(C)C)C(=O)C(C)(C)c1ccc2c(c1)OCCO2,-8.05
10,Cc1nc(CO[C@H]2CN(Cc3ccccn3)[C@@H]3CCCO[C@H]23)cs1,6.92
11,CCC(O)CN1CCN(C(=O)CCc2c(C)noc2Cl)CC1 (stereo unspecified),-12.7
12,CC(C)C1SCC(=O)Nc2c1cnn2-c1ccc(Cl)cc1 (stereo unspecified),-1.66
13,CC(C)N(Cc1cccc(Cl)c1)Cc1nc2c(cnn2C)c(=O)[nH]1,6.79
14,CCc1cc(O)nc(C2CCCN2C(=O)c2cccnc2)n1 (stereo unspecified),20.7
15,Cc1csc2ncc(-c3ccnc(N4CCC[C@@H]4CO)n3)c(=O)n12,-2.68
16,Cc1cccc(C(=O)N2C[C@@H]3CC[C@H](Oc4cccc(F)c4)[C@@H]3C2)n1,-5.82
17,CCOc1ccc(C(C)NC(=O)N2CCC(C(N)=O)CC2)cc1OC (stereo unspecified),-10.4
18,COc1ccc(SC(C)C(=O)N2CCC(O)CC2)cc1 (stereo unspecified),-4.3
19,CN(Cc1cnn(C)c1)C(=O)NC1CCCC1,-7.1
20,O=C(NS(=O)(=O)c1cccc(C(F)(F)F)c1)c1cscn1,-10.3
21,CCCOc1ccc(C(=O)N2CC[C@H]3CC[C@@H](C2)N3)cc1Cl,-14.3
22,Cc1cncc(C(=O)N2CCC3(CC2)NC(=O)CC3c2ccccc2)c1 (stereo unspecified),17.7
23,N#Cc1cc(F)ccc1CN1CCCCC1Cn1cncn1 (stereo unspecified),-4.9

row,SMILES,cytotoxicity at 70.5 h [%]
1,COCCOc1ccc(S(=O)(=O)Nc2cccnc2O)cc1C,-4.13
2,O=C(c1cccc2ccnn12)N1CCCC1Cn1cccn1 (stereo unspecified),-2.56
3,Cn1cc(NC(=O)N2CCC(CN3CCCC3)CC2)ccc1=O,-0.384
4,CN(C)CCCNCCC(Cc1ccccc1)C1CCOC(C)(C)C1 (stereo unspecified),1.12
5,CO[C@H]1CN(S(=O)(=O)c2cn(C)cn2)[C@@H]2CCCO[C@H]12,24.5
6,O=C(c1cnc(-c2cccnc2)nc1)N1CCC(c2ccncc2)CC1,-5.85
7,O=C(NC1CC1)c1cc(C(F)(F)F)cc(C(F)(F)F)n1,-9.57
8,OCCN1CCN(Cc2cc(Cl)cc3cccnc23)CC1,4.47
9,CC1CCCCN1C(=O)c1n[nH]c(=O)c2ccccc12 (stereo unspecified),32.4
10,CCN1C(=O)CC[C@]12CC[C@@H](NC(=O)c1ccncc1F)CC2,-6.51
11,CCc1cnc(CN(C(C)=O)C2CCN(CCc3ccncc3)C2)o1 (stereo unspecified),-1.81
12,CS(=O)(=O)N1CCOCC12CCN(c1nncs1)CC2,5.03
13,CCC1CCCN(C(=O)NCc2cccnc2-n2cccn2)C1 (stereo unspecified),-4.16
14,O=C(NCc1cccnc1-n1cncn1)c1ccc2c(c1)CCO2,-1.03
15,CS(=O)(=O)c1cccc(C(N)c2ccc(F)c(F)c2)c1 (stereo unspecified),-4.97
16,O=C(CCc1ccccc1)N1CCn2cc(Cn3cncn3)nc2C1,-11.8
17,O=S(=O)(N1CCCCC1)N1CCOC2(CCCC2)C1,-0.763
18,CCC[C@@H]1CN(c2cncc(C(=O)N3CCOCC3)n2)C[C@H]1N(C)C,32.6
19,Cc1cc(CN2CC[C@H]3C[C@H](C(=O)Nc4cccnc4C)O[C@@H]3C2)no1,12.4
20,CCCn1ncc(CN2C[C@@H]3CCCN3C[C@@H]2Cc2ccccc2)c1C,-2.55
21,Cc1ccc(CN2CC[C@@H]3CN(S(C)(=O)=O)CCO[C@@H]3C2)o1,7.49
22,CN(CCc1ccccc1)Cc1cc(C(=O)N2CCCC2(C)C)no1,8.4
23,Cc1c(Br)cnn1C(C)C(=O)Nc1nncs1 (stereo unspecified),-14.2

row,SMILES,cytotoxicity at 70.5 h [%]
1,O=c1[nH]c(CN2CCOC(Cn3cccn3)C2)nc2ccccc12 (stereo unspecified),-6.2
2,CCc1noc(C(C)N2CCNCC2)n1 (stereo unspecified),0.0476
3,O=C(CCNc1ncccn1)NCc1cccc(OC(F)F)c1,-11.7
4,C=C(C)CN(CC)Cc1nc(CC)no1,-8.43
5,NC(=O)Cn1cc(NC(=O)N2CCC(c3ccccc3)CC2)cn1,-5.24
6,Cc1c(NC(=O)NC2CCCC2)cccc1C(=O)N1CCSCC1,-3.56
7,Cc1nc(CC(=O)N(CCN2CCOCC2)Cc2ccco2)c(C)s1,-4.1
8,CCc1cc(N2CCN3CCCCC3C2)n2nccc2n1 (stereo unspecified),-8.87
9,Cc1ccc(CN2CCC3(CC2)C(=O)N(C)c2ccccc23)s1,0.079
10,O=C(O)c1csc(S(=O)(=O)N2CCCc3cc(OC(F)F)ccc32)c1,-10.7
11,CCn1cnnc1CNC(=O)N(C)Cc1c(F)cccc1Cl,-8.68
12,NC(=O)c1nc2c(s1)CCN(C(=O)Nc1cccc(Cl)c1)CC2,7.06
13,O=C(CSc1ccc2c(c1)OCCO2)NS(=O)(=O)c1ccccc1F,-5.01
14,FC(F)(F)C1CN(Cc2cccc(OCc3ccccn3)c2)CCO1 (stereo unspecified),8.84
15,O=C1CCOCCN1Cc1ccc(C(F)(F)F)c(F)c1,14.1
16,CCC(=O)N1CCCCC1c1nc(O)c2c(n1)CN(S(=O)(=O)CC)CC2 (stereo unspecified),-13.9
17,Cc1ncccc1C(=O)Nc1cccc(Cn2ccccc2=O)c1,-7.74
18,CC(C)c1nn(C)c(Cl)c1CNCc1cccnc1N(C)C,-9.54
19,CN1C(=O)CC(c2cnn(C)c2)C12CCN(C(=O)c1ccc[nH]1)CC2 (stereo unspecified),-5.07
